Blank lines part the entries; values can stand above or below the sequence they belong to.
Columns and labels:
Assay in all cases: pTyr-Var library bacterial peptide display kinase screen (enrichment scores)
c-Abl kinase domain = target: T1, c-Abl kinase domain (Mus musculus, UniProt P00520); assay type: biochemical;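 also: log2 fold change in enrichment of variant over reference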
T1 sequence (P00520 242-493 limits assumed): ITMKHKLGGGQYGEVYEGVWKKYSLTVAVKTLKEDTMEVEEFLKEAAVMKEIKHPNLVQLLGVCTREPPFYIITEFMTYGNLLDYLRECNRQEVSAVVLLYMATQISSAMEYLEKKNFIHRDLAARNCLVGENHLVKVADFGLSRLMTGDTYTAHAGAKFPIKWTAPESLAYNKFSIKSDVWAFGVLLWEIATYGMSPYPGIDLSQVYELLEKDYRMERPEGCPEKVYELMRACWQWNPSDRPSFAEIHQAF

c-Src kinase domain = c-Src kinase domain (Homo sapiens, UniProt P12931); assay type: biochemical; conditions: for Screen: sheet "Src";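 as to screen: log2 fold change in enrichment of variant over reference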
Fer kinase domain = assay type: biochemical, mouse; conditions: sheet "Fer"
EPHB1 kinase domain = assay type: biochemical, human; conditions: for Screen: sheet EPHB1, effect of the variant peptide relative to its reference peptide in the pTyr-Var library screen (enrichment scores); for Screen (variant relative to reference peptide, measured in the pTyr-Var library screen): sheet "EPHB1", variant seq vs reference seq, bacterial peptide display enrichment
[1] = sheet "Abl", effect of variant peptide relative to its reference peptide in pTyr-Var library screen (enrichment)
[2] = fig5-data2, sheet "Abl", Screen for the variant/reference peptide pair, pTyr-Var library
[3] = effect of the variant peptide relative to its reference peptide in the pTyr-Var library screen
[4] = variant peptide versus its reference peptide in the pTyr-Var library screen
[5] = value of the variant peptide against its reference peptide in the pTyr-Var library screen with Fer
[6] = variant peptide relative to its reference peptide, pTyr-Var library screen enrichment

Sequence: CEETFYTMKMN [MASP2_Y401_V405M]
Screen (c-Src kinase domain; [3]): 0.9168

Sequence: CGTPDYIDPEI [PRKCG_Y521_A523D]
Screen (c-Abl kinase domain; [2]): -0.1317

Sequence: DCAAIYGNEPD [AKR1A1_Y50_E55D]
Screen (c-Src kinase domain; [3]): 0.2268

Sequence: DFCDLYGGEKF [PTPN11_Y66_Y63C_YF]
Screen (c-Src kinase domain; [4]): -0.008516

Sequence: DFFDLYGGEKL [PTPN11_Y66_F71L_YF]
Screen (c-Abl kinase domain; [2]): -1.348
Screen (c-Src kinase domain; [4]): 0.4429

Sequence: DISEPYEVFRI [IRF8_Y107_K108E_YF]
Screen (c-Src kinase domain; [3]): 2.852
Screen (Fer kinase domain; [5]): 4.437

Sequence: DLDFTYIFPNI [PTEN_Y27_L25F_YF]
Screen (c-Src kinase domain; [4]): -0.8557
Screen (EPHB1 kinase domain): -1.115

Sequence: EALDFYGEVRT
Enrichment score (mean) (c-Src kinase domain; pTyr-Var library screen with c-Src, sheet "Src substrates": annotated Src substrate sites, 11-residue peptide SITE_+/-5_AA, mean): 1.015

Sequence: FKEIVYAVSSD [DCX_Y70_G67E]
Screen (c-Src kinase domain; [3]): 2.95

Sequence: FQKNIYSEEPR [LMNA_Y211_L215P]
Screen (c-Src kinase domain; [3]): -0.2654

Sequence: HDRNTYEKFLE [TF_Y666_G671E_YF]
Screen (c-Src kinase domain; [4]): -1.841

Sequence: IDSTPYGQWFE [RPS8_Y109_R110G_YF]
Screen (c-Src kinase domain; [4]): 3.305

Sequence: IPGGIYNADLN [CST4_Y35_D36N]
Screen (c-Src kinase domain; [3]): -0.256

Sequence: KFEDVYVRICL [B3GALNT1_Y269_G271R]
Screen (c-Src kinase domain; [3]): -2.417
Screen (Fer kinase domain; [5]): -2.092

Sequence: KMKGDYFRSLA [YWHAG_Y130_Y133S_YF]
Screen (c-Abl kinase domain; [1]): -4.108
Screen (c-Src kinase domain; [4]): -2.206

Sequence: KRRGPYEMSPS [PLPP7_Y172_T174M]
Screen (c-Abl kinase domain; [2]): -0.6744

Sequence: KSMFVYCTPNK [ATP2A2_Y497_S495F]
Screen (c-Abl kinase domain; [2]): 1.832

Sequence: KSSDVYVSFDC [SORL1_Y136_Y141C_YF]
Screen (c-Src kinase domain; [4]): -0.3615
Screen (Fer kinase domain; [6]): -2.678
Screen (variant relative to reference peptide, measured in the pTyr-Var library screen) (EPHB1 kinase domain): -0.2812

Sequence: KVALVYGQMNQ [ATP5F1B_Y269_E274Q]
Screen (c-Src kinase domain; [3]): 0.6915

Sequence: LITILYIGFLG [KCNQ1_Y267_T265I]
Screen (c-Src kinase domain; [3]): -1.468

Sequence: LITLVYGCSRQ [TMPRSS6_Y290_S288L]
Screen (c-Src kinase domain; [4]): -0.7056

Sequence: LRFDSYWSFCN [SLC20A2_Y433_S434W_YF]
Screen (c-Src kinase domain; [4]): 2.108

Sequence: LVKDPYVMFPQ [PLEKHG2_Y489_P484L]
Screen (c-Abl kinase domain; [2]): 1.829
Screen (c-Src kinase domain; [4]): 0.6915

Sequence: MVSLFYGTAIF [OR10C1_Y251_L255I]
Screen (c-Src kinase domain; [4]): -0.3478

Sequence: NTADFYDLFGG [PTPN11_Y63_G60A_YF]
Screen (c-Src kinase domain; [4]): -0.001161
Screen (Fer kinase domain; [6]): -0.1929

Sequence: NTVDFYDLFGG [PTPN11_Y63_G60V_YF]
Screen (c-Src kinase domain; [4]): -0.792
Screen (Fer kinase domain; [6]): -0.946

Sequence: PEAALYGRFTF [FYN_Y440_I445F]
Screen (c-Src kinase domain; [3]): 0.2008
Screen (Fer kinase domain; [5]): 0.7423

Sequence: PESIMYWKFTT [NTRK3_Y744_R745W]
Screen (c-Src kinase domain; [4]): 2.713
Screen (Fer kinase domain; [5]): 1.613

Sequence: PFAEPYADFGG [APBA1_Y187_S184A_YF]
Screen (c-Src kinase domain; [3]): -0.451

Sequence: PLDGEYFTLHI [TP53_Y327_Q331H]
Screen (c-Src kinase domain; [4]): -0.3825

Sequence: PLDGEYFTLRI [TP53_Y327_Q331R]
Screen (c-Src kinase domain; [4]): -0.2935

Sequence: PLQNTYNFNVL [SLC4A1_Y553_K551N_YF]
Screen (c-Src kinase domain; [4]): 2.669

Sequence: PRIHSYRGHLW [VHL_Y112_R107P]
Screen (c-Src kinase domain; [4]): -2.322
Screen (variant relative to reference peptide, measured in the pTyr-Var library screen) (EPHB1 kinase domain): -0.7646

Sequence: QGCGIYKDFFR [PLA2G2D_Y82_S80G_YF]
Screen (c-Src kinase domain; [4]): -0.1018

Sequence: QNKEDYDGLKE [GSTO1_Y139_A140D]
Screen (Fer kinase domain; [5]): -0.3459

Sequence: RCQDLYSARDL [SART1_Y249_R245C]
Screen (c-Src kinase domain; [4]): 2.461
Screen (Fer kinase domain; [6]): 2.483
Screen (EPHB1 kinase domain): 1.546

Sequence: RGDVIYKGFED [NFU1_Y194_G189R]
Screen (c-Src kinase domain; [4]): -0.4435

Sequence: RKPDIYGRLAS [MCM4_Y459_E460G]
Screen (c-Src kinase domain; [3]): 0.1835

Sequence: RMDGKYACSFT [FLNB_Y704_T703K_YF]
Screen (c-Src kinase domain; [3]): -2.226

Sequence: RRIHSYRRHLW [VHL_Y112_G114R]
Screen (c-Src kinase domain; [4]): -2.73
Screen (variant relative to reference peptide, measured in the pTyr-Var library screen) (EPHB1 kinase domain): -1.158

Sequence: SDVDLYQVRIA [PSMD9_Y70_T74I]
Screen (c-Src kinase domain; [4]): 0.1663

Sequence: SILAVYSKDIF [PANK2_Y400_N404I_YF]
Screen (c-Src kinase domain; [4]): -0.2771

Sequence: SVTCPYSPALN [TP53_Y126_T125P]
Screen (c-Src kinase domain; [4]): 1.73

Sequence: TTEHIYGDKFF [UBA7_Y524_N527K]
Screen (c-Src kinase domain; [4]): 0.1479
Screen (Fer kinase domain; [6]): -2.246

Sequence: VITTLYIGFLG [KCNQ1_Y267_L262V]
Screen (c-Src kinase domain; [3]): -0.844

Sequence: WQQQSYLDSEI [CTNNB1_Y30_G34E]
Screen (c-Abl kinase domain; [2]): 2.603

Further lines, results first:

Screen (c-Abl kinase domain; [1]): 0.5221
Sequence: AVDDKYSRREE [SART1_Y685_I681V]

Screen (c-Abl kinase domain; [2]): 1.602
Sequence: CEAVEYLESKQ [BTK_Y511_M509V]

Screen (c-Abl kinase domain; [2]): -0.2428
Sequence: DKATEYSQFMR [MAX_Y70_I71S_YF]

Screen (c-Abl kinase domain; [2]): 0.402
Sequence: DRLASYLDKLR [KRT12_Y139_V143L]

Screen (Fer kinase domain; [6]): -0.4655
Sequence: DTFDPYLDIAL [USP36_Y268_V271I_YF]

Screen (c-Abl kinase domain; [2]): -1.289
Sequence: EAIAKYDLKAT [GRB2_Y7_F9L]

Screen (Fer kinase domain; [5]): 1.098
Sequence: EPSLVYMVTKI [CPS1_Y768_D767V]

Screen (c-Abl kinase domain; [2]): -0.6166
Sequence: ERIEFYELNKK [PMM2_Y145_D148N]

Screen (c-Abl kinase domain; [1]): -3.237
Sequence: ERRLIYASDPK [VPS13D_Y864_T865A]

Screen (c-Abl kinase domain; [2]): 1.009
Sequence: FAANFYKLLGN [ROR2_Y646_D644N_YF]

Screen (c-Abl kinase domain; [2]): -1.302
Sequence: FIATQYSLCPR [LBR_Y166_R169C_YF]

Screen (c-Abl kinase domain; [2]): -0.1841
Sequence: FLAVGYHKPRI [IDS_Y225_H229R]

Screen (c-Abl kinase domain; [2]): 0.8312
Sequence: FQRITYHNWRH [PDE6B_Y556_R552Q_YF]

Screen (c-Abl kinase domain; [2]): -1.897
Sequence: FSIDFYRVGGH [NTRK2_Y707_T704I_YF]

Screen (c-Abl kinase domain; [2]): 0.9615
Sequence: GVMLLYFGRFN [ADGRD1_Y85_T82M_YF]

Screen (EPHB1 kinase domain): -0.3671
Sequence: HRNNNYEPNLF [BRCA2_Y57_K53R]

Screen (c-Abl kinase domain; [2]): 1.089
Sequence: HVSISYDIPLT [GAB1_Y307_P311L]

Screen (c-Abl kinase domain; [1]): -2.393
Sequence: IEPCIYIPEDD [XPNPEP3_Y455_G453C]

Screen (c-Abl kinase domain; [2]): 0.1947
Sequence: IGHGSYAKVLL [PRKCZ_Y263_R260H]

Screen (c-Abl kinase domain; [2]): 1.764
Sequence: IMVFVYCRVFQ [ADRB2_Y219_S220C]

Screen (c-Abl kinase domain; [2]): -0.8712
Sequence: IPTPAYQSLPA [PDCD6IP_Y727_S730L]

Screen (c-Abl kinase domain; [1]): -0.1662
Sequence: KDQPDYKFQPR [SOX9_Y172_H169Q_YF]

Screen (c-Abl kinase domain; [2]): 0.7729
Sequence: KKLAEYGPQGK [CLCA1_Y147_R152K]

Screen (c-Abl kinase domain; [2]): 2.918
Sequence: KRGIDYILWHM [FRMD1_Y225_R228W]

Screen (EPHB1 kinase domain): 0.5887
Sequence: LAIEWYVVVCK [RHO_Y136_R135W]

Screen (c-Abl kinase domain; [2]): 0.412
Sequence: LEVETYRRLLD [KRT12_Y429_I426V]

Screen (EPHB1 kinase domain): 1.461
Sequence: LGSVVYAQSKE [KCNQ2_Y226_H228Q]

Screen (EPHB1 kinase domain): -2.133
Sequence: LGSWTYPKTVS [ROS1_Y144_T145P]

Screen (c-Abl kinase domain; [2]): 0.8908
Sequence: LLQAEYWHDPI [PPT1_Y185_V181L]

Screen (c-Abl kinase domain; [2]): 0.6024
Sequence: LVQAEYWHDRI [PPT1_Y185_P189R]

Screen (c-Abl kinase domain; [2]): -0.66
Sequence: MIHSAYALGGL [CPS1_Y590_R587H]

Screen (c-Abl kinase domain; [2]): -1.908
Sequence: MNLLGYRQVRS [CHST4_Y359_H361Q]

Screen (EPHB1 kinase domain): -2.013
Sequence: NRLTDYFELLL [BBS10_Y536_P539L_YF]

Screen (Fer kinase domain; [5]): -3.553
Screen (EPHB1 kinase domain): -1.632
Sequence: QADVTYVNTQL [MERTK_Y872_I871T]

Screen (c-Abl kinase domain; [2]): -0.368
Sequence: RFGRKYKKVRF [F8_Y442_I438F]

Screen (c-Abl kinase domain; [1]): 1.898
Sequence: RLGDLYKEEMR [VIM_Y150_E151K]

Screen (c-Abl kinase domain; [2]): 1.344
Sequence: RQQEVYLLFKQ [RARRES1_Y159_D158V_YF]

Screen (c-Abl kinase domain; [2]): 0.4533
Sequence: RVFIKYLPEWT [PSEN1_Y240_L235R]

Screen (c-Abl kinase domain; [2]): 1.025
Sequence: SGADSYEMEED [EGFR_Y316_C311S]

Screen (c-Abl kinase domain; [2]): -1.303
Sequence: SLIDGYFRLTE [JAK2_Y372_A377E_YF]

Screen (c-Abl kinase domain; [2]): 0.5821
Sequence: TEGNGYISFNE [LCP1_Y28_D24E]

Screen (c-Abl kinase domain; [1]): -1.38
Sequence: TENAGYFFRIS [TTN_Y31721_V31725I_YF]
